{
  "source": "paper PMC6097718",
  "about": "(Journal of medicinal chemistry, 2018)",
  "key": {"[1]": {"test_system": "IGROV1 human EOC xenografts", "experiment": "In vivo efficacy trial with IGROV1 EOC xenografts in SCID mice"}, "[2]": {"test_system": "IGROV1 EOC cells", "settings": "colony-forming assay; cited from earlier work"}, "[3]": {"test_system": "IGROV1 knockdown cells", "experiment": "Growth inhibition in IGROV1 FRα knockdown cells", "type": "cell-based, human", "settings": "up to 1000 nM drug"}, "[4]": {"test_system": "R1–11-FR2 HeLa cells expressing FRα", "experiment": "Cell proliferation assay, FRα-expressing HeLa subline R1–11-FR2"}, "[5]": {"test_system": "R1–11-PCFT4 HeLa cells expressing PCFT", "experiment": "Cell proliferation assay, PCFT-expressing HeLa subline R1–11-PCFT4"}},
  "data": [
    {"smiles": "Nc1nc2[nH]c(CCCc3ccc(C(=O)N[C@@H](CCC(=O)O)C(=O)O)s3)cc2c(=O)[nH]1", "note": "[Compound 1]", "values": [
      {"measurement": "tumor burden range", "setting": "[1]; day 60, folate-deficient diet, iv, 11 Q4dX4 95 (mg/kg)/inj, 1 Q4dX3 32 (mg/kg)/inj", "result": "0 to 196", "unit": "mg"},
      {"measurement": "acute or long-term toxicities", "setting": "[1]; equitoxic dose levels, SCID mice", "result": "no acute or long-term toxicities other than completely reversible loss of weight"},
      {"measurement": "antitumor activity on standard (high folate) diet", "setting": "[1]; standard folate-replete diet", "result": "ablated"},
      {"measurement": "weight loss or adverse symptoms on standard (high folate) diet", "setting": "[1]; standard folate-replete diet", "result": "No weight losses or other adverse symptoms were observed"},
      {"measurement": "cell killing", "setting": "[2]", "result": "greater than 99%"}
    ]},
    {"smiles": "Nc1nc2[nH]c(CCCCc3ccc(C(=O)N[C@@H](CCC(=O)O)C(=O)O)cc3)cc2c(=O)[nH]1", "note": "[Compound 2]", "values": [
      {"measurement": "growth inhibition upon FRα knockdown", "setting": "[3]", "result": "complete loss of growth inhibition"}
    ]},
    {"smiles": "Nc1nc2[nH]c(CCCCc3csc(C(=O)N[C@@H](CCC(=O)O)C(=O)O)c3)cc2c(=O)[nH]1", "note": "[Compound 5]", "values": [
      {"measurement": "growth inhibition upon FRα knockdown", "setting": "[3]", "result": "complete loss of growth inhibition"}
    ]},
    {"smiles": "Nc1nc2[nH]c(CCCCc3ccc(C(=O)N[C@@H](CCC(=O)O)C(=O)O)c(F)c3)cc2c(=O)[nH]1", "note": "[Compound 8, (4-(4-(2-Amino-4-oxo-4,7-dihydro-3H-pyrrolo[2,3-d]pyrimidin-6-yl)butyl)-2-fluorobenzoyl)-L-glutamic Acid]", "values": [
      {"measurement": "growth inhibition upon FRα knockdown", "setting": "[3]", "result": "complete loss of growth inhibition"}
    ]},
    {"smiles": "Nc1nc2[nH]c(CCCc3ccc(C(=O)N[C@@H](CCC(=O)O)C(=O)O)c(F)c3)cc2c(=O)[nH]1", "note": "[Compound 9, (4-(3-(2-Amino-4-oxo-4,7-dihydro-3H-pyrrolo[2,3-d]pyrimidin-6-yl)propyl)-2-fluorobenzoyl)-L-glutamic Acid]", "values": [
      {"measurement": "fold IC50 below that for compound 1", "setting": "[4]; R1–11-FR2 cells", "result": 6, "unit": "fold"},
      {"measurement": "fold IC50 below that for compound 1", "setting": "[5]; R1–11-PCFT cells", "result": 10, "unit": "fold"}
    ]},
    {"smiles": "Nc1nc2[nH]c(CCCCc3cnc(C(=O)N[C@@H](CCC(=O)O)C(=O)O)c(F)c3)cc2c(=O)[nH]1", "note": "[Compound 10, (5-(4-(2-Amino-4-oxo-4,7-dihydro-3H-pyrrolo[2,3-d]pyrimidin-6-yl)butyl)-3-fluoropicolinoyl)-L-glutamic Acid]", "values": [
      {"measurement": "growth inhibition upon FRα knockdown", "setting": "[3]", "result": "complete loss of growth inhibition"}
    ]},
    {"smiles": "Nc1nc2[nH]c(CCCc3csc(C(=O)N[C@@H](CCC(=O)O)C(=O)O)c3F)cc2c(=O)[nH]1", "note": "[Compound 12, (4-(3-(2-Amino-4-oxo-4,7-dihydro-3H-pyrrolo[2,3-d]pyrimidin-6-yl)propyl)-3-fluorothiophene-2-carbonyl)-L-glutamic Acid]", "values": [
      {"measurement": "fold reduced IC50 of fluorinated versus nonfluorinated counterpart", "setting": "[4]; R1–11-FR2 HeLa cells", "result": "2–3 fold"},
      {"measurement": "selectivity for PCFT versus RFC (IC50 R1–11-RFC2/IC50 R1–11-PCFT)", "setting": "[5]; HeLa sublines", "result": "~ 3"}
    ]}
  ]
}
